This is an account of results in patent publication US5712300A, “Hydroxamic acid derivatives useful for the treatment of diseases related to connective tissue degradation” (priority 1997, dated 1998).

pKi: −log10 of the molar value.

Broadly, the pKi is the negative decadic logarithm of the Ki, by convention in mol/L.

Holding throughout (assay type): biochemical
One assay addresses Gelatinase. The assay is described as follows: MMP inhibition by particle concentration fluorescence technique (gelatinase). The note with it: pH 7.5; 15 min enzyme preincubation; substrate 1-3 h at room temperature; read-out: MMP Inhibition Constants, Gelatinase Ki. The procedure:
(§1) Inhibitory activity is evaluated in one or more of the MMP enzymes (stromelysin, gelatinase, and collagenase) in vitro using a particle concentration fluorescence techniques. An inhibitor binds to MMP enzymes prevents the degradation of a substrate of stromelysin, gelatinase, or collagenase. The substrate is attached with a fluorescein and a biotin. The intact substrate then binds to an avidin-coated particle via the biotin moiety. Once the particle is washed and dried, a fluorescent signal is generated since the fluorescent group is attached to the particle. Without an inhibitor present, the substrate is degraded by MMP enzymes and the fluorescein group is removed, therefore, no fluorescent signal can be detected. Testing compounds are dissolved in DMSO to the desired concentration, then the solutions are diluted to 1:5 with MMP buffer (50 mM Tris-HCl, pH 7.5; 150 mM NaCl; 0.02% NAN3). Serial two-fold dilutions of each compound are prepared. A concentrated, activated enzyme solution is transferred into each plate of the testing compounds, and the mixture is incubated at room temperature for 15 minutes. Thawed MMP substrate is then added into all plates, and the plates are incubate in the dark for 1-3 hours at room temperature. At this point, the substrate mixture is reacted with 0.1% avidin-coated polystyrene particles.

The target of a further assay is T1, Collagenase (Homo sapiens, UniProt P03956).
T1 sequence (P03956 100-469): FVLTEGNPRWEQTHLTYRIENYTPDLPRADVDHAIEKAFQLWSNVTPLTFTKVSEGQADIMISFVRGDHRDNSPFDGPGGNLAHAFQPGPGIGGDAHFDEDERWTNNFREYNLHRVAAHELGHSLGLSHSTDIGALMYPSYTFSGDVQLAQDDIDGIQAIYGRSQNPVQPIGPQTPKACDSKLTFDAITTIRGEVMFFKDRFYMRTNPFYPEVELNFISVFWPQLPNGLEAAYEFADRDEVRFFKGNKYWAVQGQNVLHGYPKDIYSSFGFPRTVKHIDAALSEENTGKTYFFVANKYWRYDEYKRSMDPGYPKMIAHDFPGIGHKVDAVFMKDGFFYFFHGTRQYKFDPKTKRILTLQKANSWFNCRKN
The assay is described as follows: MMP inhibition by particle concentration fluorescence technique (collagenase). The note with it: pH 7.5; 15 min enzyme preincubation; substrate 1-3 h at room temperature; read-out: MMP Inhibition Constants, Collagenase Ki. The procedure: as §1

Another assay deals with Stromelysin (Homo sapiens, UniProt P08254). Put plainly: MMP inhibition by particle concentration fluorescence technique (stromelysin). Conditions: pH 7.5; 15 min enzyme preincubation; substrate 1-3 h at room temperature; read-out: MMP Inhibition Constants, Stromelysin Ki. An excerpt:
An inhibitor binds to MMP enzymes prevents the degradation of a substrate of stromelysin, gelatinase, or collagenase. The substrate is attached with a fluorescein and a biotin. The intact substrate then binds to an avidin-coated particle via the biotin moiety. Once the particle is washed and dried, a fluorescent signal is generated since the fluorescent group is attached to the particle. Without an inhibitor present, the substrate is degraded by MMP enzymes and the fluorescein group is removed, therefore, no fluorescent signal can be detected. […] Serial two-fold dilutions of each compound are prepared. A concentrated, activated enzyme solution is transferred into each plate of the testing compounds, and the mixture is incubated at room temperature for 15 minutes.

Chain of Stromelysin (P08254 100-477): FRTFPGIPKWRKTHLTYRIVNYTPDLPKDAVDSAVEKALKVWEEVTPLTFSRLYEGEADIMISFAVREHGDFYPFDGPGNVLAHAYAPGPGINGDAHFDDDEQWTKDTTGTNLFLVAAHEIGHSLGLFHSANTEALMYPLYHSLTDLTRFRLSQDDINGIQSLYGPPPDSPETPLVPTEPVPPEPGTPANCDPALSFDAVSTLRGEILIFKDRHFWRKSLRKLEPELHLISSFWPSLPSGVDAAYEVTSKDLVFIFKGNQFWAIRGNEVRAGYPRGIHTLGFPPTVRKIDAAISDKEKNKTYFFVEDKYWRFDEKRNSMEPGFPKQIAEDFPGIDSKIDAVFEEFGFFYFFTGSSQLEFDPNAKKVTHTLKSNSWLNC

`CC(C)C[C@@]1([C@@H](CCN2C(=O)c3ccccc3C2=O)C(=O)NO)CCN(CCc2ccccc2)C1=O` (relative stereo) [Example 4, α-[2-(1,3-Dihydro-1,3-dioxo-2H-isoindol-2-yl)ethyl]-N-hydroxy-3-(2-methylpropyl)-2-oxo-1-(2-phenylethyl)-3-pyrrolidineacetamide]: the negative logarithm of the Ki (pKi) on Gelatinase was 6.69; at Collagenase it was 5.24.
As for `CC(C)C[C@@]1([C@@H](CCN2C(=O)c3ccc(N)cc3C2=O)C(=O)NO)CCN(CCc2ccccc2)C1=O` (relative stereo) [Example 9, α-[2-(5-Amino-1,3-dihydro-1,3-dioxo-2H-isoindol-2-yl)ethyl]-N-hydroxy-3-(2-methylpropyl)-2-oxo-1-(2-phenylethyl)-3-pyrrolidineacetamide], the results for the negative-log Ki (pKi) at Stromelysin, on Gelatinase and on Collagenase were 6.04, 6.11 and 4.84, respectively.
In the same order, the values of `CC(C)C[C@@]1([C@@H](CCN2C(=O)c3ccc([N+](=O)[O-])cc3C2=O)C(=O)NO)CCN(CCc2ccccc2)C1=O` (relative stereo) [Example 11, N-Hydroxy-3-(2-methylpropyl)-α-[2-(5-nitro-1,3-dihydro-1,3-dioxo-2H-isoindol-2-yl)ethyl]-2-oxo-1-(2-phenylethyl)-3-pyrrolidineacetamide] are 5.99, 6.30 and 7.14.
The corresponding values for `CC(C)C[C@@]1([C@@H](CCN2C(=O)c3ccc(F)cc3C2=O)C(=O)NO)CCN(CCc2ccccc2)C1=O` (relative stereo) [Example 14, α-[2-(5-Fluoro-1,3-dihydro-1,3-dioxo-2H-isoindol-2-yl)ethyl]-N-hydroxy-3-(2-methylpropyl)-2-oxo-1-(2-phenylethyl)-3-pyrrolidineacetamide] are 7.34, 7.01 and 6.27.
`CC(C)C[C@@]1([C@@H](CCCN2C(=O)c3ccccc3C2=O)C(=O)NO)CCN(CCc2ccccc2)C1=O` (relative stereo) [Example 15]: the negative logarithm of the Ki (pKi) at Stromelysin is 6.73; at Gelatinase, 6.11; at Collagenase, 4.67.
For the compound `CC(C)C[C@@]1([C@@H](CN2C(=O)c3ccccc3C2=O)C(=O)NO)CCN(CCc2ccccc2)C1=O` (relative stereo) [Example 16, α-[2-(1,3-Dihydro-1,3-dioxo-2H-isoindol-2-yl)methyl]-N-hydroxy-3-(2-methylpropyl)-2-oxo-1-(2-phenylethyl)-3-pyrrolidineacetamide], the pKi on Stromelysin is 7.03; on Gelatinase, 5.54; at Collagenase, 4.85.
The corresponding values for `CC(C)C[C@@]1([C@@H](CCN2C(=O)c3ccccc3C2=O)C(=O)NO)CCN(Cc2ccccc2)C1=O` (relative stereo) [Example 22, α-[2-(1,3-Dihydro-1,3-dioxo-2H-isoindol-2-yl)ethyl]-N-hydroxy-3-(2-methylpropyl)-2-oxo-1-(phenylmethyl)-3-pyrrolidineacetamide] are 5.71, 5.89 and 5.68.
For the compound `CC(C)C[C@@]1([C@@H](CCN2C(=O)c3ccccc3C2=O)C(=O)NO)CCN(Cc2cccc(F)c2)C1=O` (relative stereo) [Example 25], the negative logarithm of the Ki (pKi) on Stromelysin is 6.19; at Gelatinase, 5.89; at Collagenase, 5.72.
With `CNC(=O)[C@H](Cc1ccccc1)N1CC[C@@](CC(C)C)([C@@H](CCN2C(=O)c3ccccc3C2=O)C(=O)NO)C1=O` (relative stereo) [Example 29, [R,R-(R*,R*)]-α^3-[2-(1,3-Dihydro-1,3-dioxo-2H-isoindol-2-yl)ethyl]-N^3-hydroxy-N^1-methyl-3-(2-methylpropyl)-2-oxo-α^1-(phenylmethyl)-1,3-pyrrolidinediacetamide], the figures for the negative logarithm of the Ki (pKi) on Stromelysin, on Gelatinase and at Collagenase were 6.24, 6.01 and 6.32, respectively.
`CC(C)C[C@@]1(CC(=O)NO)CCN([C@@H](Cc2ccccc2)C(=O)N2C[C@@H](C)N[C@@H](C)C2)C1=O` (relative stereo) [Example 56, [1(1S)-[1[R*(R*)],3α,5α]]-1-[2-(3,5-Dimethyl-1-piperazinyl)-2-oxo-1-(phenylmethyl)ethyl]-N-hydroxy-3-(2-methylpropyl)-2-oxo-3-pyrrolidineacetamide]: the pKi was 5.64 on Stromelysin, 6.47 on Gelatinase and 6.03 at Collagenase.
In the same order, the values of `CC(C)C[C@@]1(CC(=O)NO)CCN([C@H](C(=O)NCC2CC2)C2CCCCC2)C1=O` (relative stereo) [Example 59, [S-(R*,R*)]-α^1 -Cyclohexyl-N^1-cyclopropylmethyl-N^3-hydroxy-3-(2-methylpropyl)-2-oxo-1,3-pyrrolidinediacetamide] are 6.64, 7.96 and 8.48.
With `CC(C)C[C@@]1([C@@H](CCN2C(=O)c3ccc(C(F)(F)F)cc3C2=O)C(=O)NO)CCN(CCc2ccccc2)C1=O` (relative stereo) [Example 65, N-Hydroxy-3-(2-methylpropyl)-2-oxo-1-(2-phenylethyl)-α-[2-(5-trifluoromethyl-1,3-dihydro-1,3-dioxo-2H-isoindol-2-yl)ethyl]-3-pyrrolidineacetamide], the negative-log Ki (pKi) is 5.98 on Stromelysin, 6.64 on Gelatinase and 6.29 at Collagenase.
The corresponding values for `CC(C)C[C@@]1([C@@H](CCN2C(=O)c3ccccc3C2=O)C(=O)NO)CCN(CCCc2ccccc2)C1=O` (relative stereo) [Example 67, α-[2-(1,3-Dihydro-1,3-dioxo-2H-isoindol-2-yl)ethyl]-N-hydroxy-3-(2-methylpropyl)-2-oxo-1-(3-phenylpropyl)-3-pyrrolidineacetamide] are 6.67, 7.44 and 5.30.
The corresponding values for `CC(C)C[C@@]1([C@@H](CCN2C(=O)c3ccccc3C2=O)C(=O)NO)CCN(CCc2ccc(F)cc2)C1=O` (relative stereo) [Example 68, 1-[2-(4-Fluorophenyl)ethyl]-α-[2-(1,3-dihydro-1,3-dioxo-2H-isoindol-2-yl)ethyl]-N-hydroxy-3-(2-methylpropyl)-2-oxo-3-pyrrolidineacetamide] are 6.46, 6.80 and 5.84.
In the same order, the values of `CC(C)C[C@@]1([C@@H](CCN2C(=O)c3ccccc3S2(=O)=O)C(=O)NO)CCN(CCc2ccccc2)C1=O` (relative stereo) [Example 69, α-[2-(o-benzoic sulfimide)ethyl]-N-hydroxy-3-(2-methylpropyl)-2-oxo-1-(2-phenylethyl)3-pyrrolidineacetamide] are 6.67, 6.30 and 5.92.
In the case of `CCOC(=O)N(CC[C@@H](C(=O)NO)[C@]1(CC(C)C)CCN(CCc2ccccc2)C1=O)C(=O)OCc1ccccc1` (relative stereo) [Example 70, Ethyl Phenylmethyl[4-(hydroxyamino)-3-[3-(2-methylpropyl)-2-oxo-1-(2-phenylethyl)-3-pyrrolidinyl]-4-oxobutyl]imidodicarbonate], the pKi on Stromelysin was 6.71; at Collagenase, 5.92.
The corresponding values for `CC(C)C[C@@]1([C@@H](CCNC(=O)c2cccc(F)c2)C(=O)NO)CCN(CCc2ccccc2)C1=O` (relative stereo) [Example 77, α-[2-[(3-Fluorobenzoyl)amino]ethyl]-N-hydroxy-3-(2-methylpropyl)-2-oxo-1-(2-phenylethyl)-3-pyrrolidineacetamide] are 6.84 and 7.16.
For `CC(C)C[C@@]1([C@@H](CCN2C(=O)c3ccccc3C2=O)C(=O)NO)CCN(CCc2ccccc2)C1=O` [Example 5, (3S)-α-[2-(1,3-Dihydro-1,3-dioxo-2H-isoindol-2-yl)ethyl]-N-hydroxy-3-(2-methylpropyl)-2-oxo-1-(2-phenylethyl)-3-pyrrolidineacetamide], the negative-log Ki (pKi) is 6.94 on Gelatinase and 5.36 at Collagenase.
